Measurements taken from patent US5789384A, “Pharmaceutical dipeptide compositions and methods of use thereof” (priority 1995, dated 1998).

Conditions: in vivo

SMILES: CC[C@H](C)[C@H](N)C(=O)N[C@@H](Cc1c[nH]c2ccccc12)C(=O)O [Ile-Trp, L-Ile-L-Trp]
- side effects from the use of the dipeptide: not found any significant side effects
